Measured values published in paper PMC6149849, “Cymantrenyl-Nucleobases: Synthesis, Anticancer, Antitrypanosomal and Antimicrobial Activity Studies” (Molecules : A Journal of Synthetic Chemistry and Natural …, 2017).
Like-named read-outs stand apart in the source and are kept apart here.

Key:
[1] = tested on: MCF-7/DX (estrogen-responsive breast adenocarcinoma resistant to doxorubicin); experiment: cells; type: cell-based, human
Procedure: (§1) The cytotoxicity of cymantrene derivatives was evaluated by the MTT microplate methods as described elsewhere [67] by incubating the cells with increasing concentrations of tested compounds for 24 h. Briefly, 0.1 mL of logarithmically growing cells were seeded in a 96-well microplate (5 × 10^4 cells/well) a day before the experiments and after 24 h of culture, tested compounds, dissolved in DMSO, and diluted in culture medium, were added. […] After further incubation for 24 h, the medium was replaced with fresh medium and the cells were allowed to grow for additional 48 h. Then, the medium was aspirated and 0.05 mL of MTT (final concentration of 5 mg/mL medium) added to each well, and the cells were incubated for further 4 h. The absorbance of the product, resulting from the MTT reduction, was read with a microplate reader at 545 nm. The percentage of viable cells was calculated by comparing the absorbance of treated cells with that of the untreated control cells (taken as 100%). The IC50 concentration of each compound was calculated from the cell survival curves using GraphPad Prism 4.02 software for Windows (GraphPad Software, San Diego, CA, USA).

[2] = tested on: S. epidermidis ATCC 12228; experiment: Antibacterial liquid microdilution (CLSI M07-A8); type: cell-based, Staphylococcus epidermidis; conditions: 18 to 24 h
Procedure: Organometallic compounds play an increasingly important role in the search for new antibacterial agents. We, therefore, thought to investigate also the bactericidal activity of the newly synthesized cymantrenes 1–7, compound C and CymH. The antibacterial activity of the compounds was tested against Gram-positive methicillin-sensitive Staphylococcus aureus (MSSA), methicillin-resistant S. aureus (MRSA), vancomycin-intermediate S. aureus (VISA), S. epidermidis, and Gram-negative Escherichia coli bacterial strains, and expressed as minimal inhibitory concentration (MIC) values (Table 3).
The antibacterial activity of CymH, 1–7 and C and the reference drugs penicillin G and polymyxin B was tested by the liquid microdilution method under standard conditions using twofold dilution series, as described in the Clinical and Laboratory Standards Institute (CLSI), reference method M07-A8, and expressed as minimal inhibitory concentration (MIC) values. A panel of Gram-positive bacterial strains, S. aureus ATCC® 29213 (sensitive to methicillin, (MSSA)), S. aureus ATCC® 43300 (resistant to methicillin, (MRSA)), S. aureus ATCC 700787™ (intermediate to vancomycin, (VISA)), and S. epidermidis ATCC 12228™, and one Gram-negative, strain E. coli ATCC BAA-198™ (ESBL) were used. In addition, four clinical isolates of S. aureus (MSSA and MRSA) and two clinical isolates of S. epidermidis that were collected from different patients at the Medical University of Warsaw, Poland, were also tested. The bacterial cells were cultivated on tryptic soy agar (TSA) and nutrient agar (NA), according to ATCC recommendations. All of the strains were incubated at 37 °C. Tested compounds were dissolved in DMSO and then serially diluted twofold with cation-adjusted Mueller-Hinton broth (CAMHB). Then, 95 µL of the dilutions were dispensed into microdilution sterile plates (Mar-Four), followed by the addition of 5 µL of bacteria inoculum containing 5 × 10^4 CFU/mL. The final concentrations of the compounds ranged from 512 to 2 µg/mL. Each compound was tested in triplicate, and Penicillin G (8–0.15 µg/mL) and Polymyxin B (256–0.0625 µg/mL) were used as controls. The plates were incubated at 37 °C for 18 to 24 h depending on the bacterial strain. Thereafter, the absorbance was measured at λ = 540 nm and λ = 595 nm using a Spectrostar Omega microplate reader (BMG Labtech, Offenburg, Germany). The MIC value was defined as the lowest concentration of a compound that reduced the growth by 100%.

[3] = tested on: A549 (non-small cell lung carcinoma); experiment: MTT cytotoxicity assay, A549
Procedure: Anticancer activity of cymantrenes was determined using a panel of human cancer cell lines that were derived from solid tumors. These included cell lines of estrogen-responsive, doxorubicin resistant, and triple negative breast adenocarcinomas (MCF-7, MCF-7/DX, and MDA-MB-231), ovarian adenocarcinoma (SKOV-3), non-small cell lung carcinoma (A549), hepatocellular carcinoma (HepG2), and glioblastoma (U-87 MG). The inhibitory effect of cymantrene derivatives on cell proliferation and growth was determined based on survival curves and was expressed as IC50 values (concentration required to achieve a 50% decrease in cell viability when compared to the viability of untreated control cells) calculated using GraphPad Prism 4.02 software for Windows (GraphPad Software, San Diego, CA, USA). Cell viability was determined by the MTT microplate spectrophotometric cytotoxicity test.
Anticancer activity of cymantrene derivetives were determined on the basis of their cytotoxic effects on a panel of human cancer cells, as derived from different types of solid tumors: estrogen responsive breast adenocarcinoma (MCF-7), triple negative breast adenocarcinoma (MDA-MB-231), ovarian adenocarcinoma (SKOV-3), non-small cell lung carcinoma (A549), hepatocellular carcinoma (HepG2), and glioblastoma (U-87 MG). Additionally, doxorubicin resistant breast adenocarcinoma cells (MCF-7/Dox) were also included for comparison. All of the cell lines were purchased from American Type Culture Collection (ATCC, Rockville, MD, USA), except the MCF-7/dox cell line, which was a generous gift from Professor Malgorzata Latocha from the Department of Cell Biology, Medical University of Silesia in Katowice, Poland.
Cells were grown as a monolayer in DMEM growth medium, supplemented with 10% FBS, penicillin (10 U/mL) and streptomycin (50 μg/mL), under standard conditions (37 °C, 5% CO2 and 95% air, 100% humidity) and periodically checked for Mycoplasma contamination.
The cytotoxicity of cymantrene derivatives was evaluated by the MTT microplate methods as described elsewhere by incubating the cells with increasing concentrations of tested compounds for 24 h. Briefly, 0.1 mL of logarithmically growing cells were seeded in a 96-well microplate (5 × 10^4 cells/well) a day before the experiments and after 24 h of culture, tested compounds, dissolved in DMSO, and diluted in culture medium, were added. […] After further incubation for 24 h, the medium was replaced with fresh medium and the cells were allowed to grow for additional 48 h. Then, the medium was aspirated and 0.05 mL of MTT (final concentration of […] medium) added to each well, and the cells were incubated for further 4 h. The absorbance of the product, resulting from the MTT reduction, was read with a microplate reader at 545 nm. The percentage of viable cells was calculated by comparing the absorbance of treated cells with that of the untreated control cells (taken as 100%). The IC50 concentration of each compound was calculated from the cell survival curves using GraphPad Prism 4.02 software for Windows (GraphPad Software, San Diego, CA, USA).

[4] = tested on: MDA-MB-231 (triple negative breast adenocarcinoma); experiment: MTT cytotoxicity assay, MDA-MB-231; type: cell-based, human
Procedure: Anticancer activity of cymantrenes was determined using a panel of human cancer cell lines that were derived from solid tumors. […] The inhibitory effect of cymantrene derivatives on cell proliferation and growth was determined based on survival curves and was expressed as IC50 values (concentration required to achieve a 50% decrease in cell viability when compared to the viability of untreated control cells) calculated using GraphPad Prism 4.02 software for Windows (GraphPad Software, San Diego, CA, USA). Cell viability was determined by the MTT microplate spectrophotometric cytotoxicity test.
as §1

[5] = 24 h incubation, MTT, means ± SEM, read-out: cytotoxicity IC50, MCF-7/DX
[6] = read-out: cytotoxicity IC50, A549, 24 h incubation, MTT, means ± SEM
[7] = 24 h incubation, MTT, means ± SEM, read-out: cytotoxicity IC50, MDA-MB-231

SMILES	IC50 [1]	MIC, S. epidermidis ATCC 12228 [2]	IC50 [3]	IC50 [4]	IC50 [1, 5]	IC50 [3, 6]	IC50 [4, 7]
O=C(CCn1cc(F)c(=O)[nH]c1=O)[C]12[CH]3[CH]4[CH]5[CH]1[Mn]4532.[C-]#[O+].[C-]#[O+].[C-]#[O+] (stereo not drawn) [Compound 1]	137 ± 3.41 µM	8 µg/mL	25.1 ± 1.25 µM	27.9 ± 1.11 µM	–	–	–
COC(CCn1cc(F)c(=O)n(C)c1=O)[C]12[CH]3[CH]4[CH]5[CH]1[Mn]4532.[C-]#[O+].[C-]#[O+].[C-]#[O+] (racemic) [Compound 4]	–	>512 µg/mL	> 150 µM	> 150 µM	–	–	–
O=[C]=[Mn](=[C]=O)(=[C]=O)[CH]1C=CC=C1 [CymH, tricarbonyl(η^5-cyclopentadienyl)manganese, reference compound]	–	>512 µg/mL	–	–	144 ± 2.24 µM	87 ± 1.35 µM	68.6 ± 1.74 µM
Nc1ncnc2c1ncn2CCC(O)[C]12[CH]3[CH]4[CH]5[CH]1[Mn]4532[P](c1ccccc1)(c1ccccc1)c1ccccc1.[C-]#[O+].[C-]#[O+] (racemic) [Compound 5]	–	>256 µg/mL	–	–	–	23.7 ± 0.86 µM	56 ± 2.07 µM
O=c1[nH]c(=O)n(CCC(O)[C]23[CH]4[CH]5[CH]6[CH]2[Mn]5643[P](c2ccccc2)(c2ccccc2)c2ccccc2)cc1F.[C-]#[O+].[C-]#[O+] (racemic) [Compound 3]	–	>256 µg/mL	–	–	39.9 ± 1.41 µM	20.4 ± 1.09 µM	35.7 ± 1.44 µM
CCC(=O)[C]12[CH]3[CH]4[CH]5[CH]1[Mn]4532.[C-]#[O+].[C-]#[O+].[C-]#[O+] (stereo not drawn) [Compound 7, propionylocymantrene]	–	>512 µg/mL	30.6 ± 1.35 µM	63 ± 1.32 µM	–	–	–
COC(CCn1cnc2c(N(C)C)ncnc21)[C]12[CH]3[CH]4[CH]5[CH]1[Mn]4532.[C-]#[O+].[C-]#[O+].[C-]#[O+] (racemic) [Compound 6]	–	>512 µg/mL	102 ± 1.08 µM	> 150 µM	–	–	–
Nc1ncnc2c1ncn2CCC(O)[C]12[CH]3[CH]4[CH]5[CH]1[Mn]45321[P](c2ccccc2)(c2ccccc2)CC[P]1(c1ccccc1)c1ccccc1.[C-]#[O+] (racemic) [Compound C]	–	16 µg/mL	16.5 ± 0.82 µM	43.1 ± 1.95 µM	–	–	–
